Results on 1 substance are retold here after patent publication US5578570A, “Method of treating septic shock using thymosin β4” (The George Washington University Medical Center, priority 1994, dated 1996).

The subject of the test is Rats with Septic Shock. Kind of test: Survival of Sprague-Dawley rats in septic shock model (peritonitis). As to conditions: Table XIV, septic shock + antibiotic (gentamicin sulfate, 1 mg/rat) alone, 10 rats at 0 hr. Type of test: in vivo. The text has this:
Using a septic shock model in rats (Sprague-Dawley, male, 200-225 g each), the effect of thymosin β4 alone and together with antibiotics was studied. Peritonitis was induced in rats in the following way. A 1-cm incision was made into the peritoneal which exposed the cecum. A tight ligature was placed around the cecum with 4-0 suture distal to the insertion of the small bowel, forming an area of devitalized tissue while maintaining bowel continuity. A puncture wound was made with 16-gauge needle into the anti-mesenteric surface of the cecum and a small amount of fecal contents was expressed through the wound. The cecum was replaced into the peritoneal cavity, and the anterior peritoneal wall and skin were closed with surgical staples. Each animal was given a bolus of normal saline (15 ml/kg) for hydration and allowed to recover overnight.

As for “gentamicin sulfate [antibiotic, reference compound]”, the “Survival of rats (number alive)” value stood at 1 (24 hr), 1 (48 hr) and 0 (72 hr).
